Measured values published in patent US20020111274A1, “1-alkyl-3-[1-(substituted phenyl) benzotriazol-6-yl] uracils” (BASF Aktiengesellschaft, priority 2000, published 2002).

Experiments:
Design in all cases: scale not given here
[1] = system: CHEAL Lambsquarters, Common; experiment: Preemergence herbicidal evaluation, CHEAL; type: in vivo, Chenopodium album, L.; settings: preemergence
Source text: (§1) The preemergence herbicidal activity of the test compounds of the present invention is exemplified by the following tests in which the seeds of a variety of monocotyledonous and dicotyledonous plants are separately mixed with potting soil and planted on top of approximately one inch of soil in separate pint cups. […] The treated cups are then placed on greenhouse benches, watered and cared for in accordance with conventional greenhouse procedures. From four to five weeks after treatment, the tests are terminated and each cup is examined and rated according to the rating system provided in Example 46.

GALAP Galium [2] = experiment: Preemergence herbicidal evaluation, GALAP; type: in vivo, Galium aparine; settings: preemergence
Source text: as §1

[3] = system: IPOHE Morningglory, Ivyleaf; experiment: Postemergence herbicidal evaluation, IPOHE; type: in vivo, Ipomoea hederacea, (L.) Jacq.; settings: postemergence spray, rated about two-three weeks after treatment
Experimental: (§2) In this evaluation, seedling plants are grown in jiffy flats for about two weeks. The test compounds are dispersed in 80/20 acetone/water mixtures containing 1.0% SUN-IT® II, a methylated seed oil, in sufficient quantities to provide the equivalent of about 0.006 kg to 0.400 kg per hectare of active compound when applied to the plants through a spray nozzle operating at 40 psi for a predetermined time. After spraying, the plants are placed on greenhouse benches and are cared for in accordance with conventional greenhouse procedures. Approximately two - three weeks after treatment, the seedling plants are examined and rated according to the rating system set forth below. Where more than one test is involved for a given compound, the data are averaged.

[4] = system: CHEAL Lambsquarters, Common; experiment: Postemergence herbicidal evaluation, CHEAL; type: in vivo, Chenopodium album, L.; settings: postemergence spray, rated about two-three weeks after treatment
Experimental: as §2

GLXMAW Soybean, Williams [5] = experiment: Preemergence herbicidal evaluation, GLXMAW; type: in vivo, Glycine max, (L.) Merr. cv Williams; settings: preemergence
Source text: as §1

AMBEL Ragweed, Common [6] = experiment: Preemergence herbicidal evaluation, AMBEL; type: in vivo, Ambrosia artemisifolia, L.; settings: preemergence
Source text: as §1

ECHOG Barnyardgrass [7] = experiment: Postemergence herbicidal evaluation, ECHOG; type: in vivo, Echinochloa crus-galli, (L.) Beau; settings: postemergence spray, rated about two-three weeks after treatment
Experimental: as §2

[8] = system: TRZAWR Wheat, Winter, cv Riband; experiment: Postemergence herbicidal evaluation, TRZAWR; type: in vivo, Triticum aestivum; settings: postemergence spray, rated about two-three weeks after treatment
Experimental: as §2

ABUTH Velvetleaf [9] = experiment: Preemergence herbicidal evaluation, ABUTH; type: in vivo, Abutilon theophrasti, Medic.; settings: preemergence
Source text: as §1

ZEAMX Corn, Field [10] = experiment: Postemergence herbicidal evaluation, ZEAMX; type: in vivo, Zea mays, L. (Sammel-Bezeichnung); settings: postemergence spray, rated about two-three weeks after treatment
Experimental: as §2

ZEAMX Corn, Field [11] = experiment: Preemergence herbicidal evaluation, ZEAMX; type: in vivo, Zea mays, L. (Sammel-Bezeichnung); settings: preemergence
Source text: as §1

ECHOG Barnyardgrass [12] = experiment: Preemergence herbicidal evaluation, ECHOG; type: in vivo, Echinochloa crus-galli, (L.) Beau; settings: preemergence
Source text: as §1

[13] = system: TRZAWR Wheat, Winter, cv Riband; experiment: Preemergence herbicidal evaluation, TRZAWR; type: in vivo, Triticum aestivum; settings: preemergence
Source text: as §1

ABUTH Velvetleaf [14] = experiment: Postemergence herbicidal evaluation, ABUTH; type: in vivo, Abutilon theophrasti, Medic.; settings: postemergence spray, rated about two-three weeks after treatment
Experimental: as §2

SETVI Foxtail, Green [15] = experiment: Postemergence herbicidal evaluation, SETVI; type: in vivo, Setaria viridis, (L.) Beau; settings: postemergence spray, rated about two-three weeks after treatment
Experimental: as §2

CASOB Sicklepod [16] = experiment: Preemergence herbicidal evaluation, CASOB; type: in vivo, Cassia obtusifolia, L.; settings: preemergence
Source text: as §1

ORYSAT Rice, Tebonnet [17] = experiment: Postemergence herbicidal evaluation, ORYSAT; type: in vivo, Oryza sativa, (L.); settings: postemergence spray, rated about two-three weeks after treatment
Experimental: as §2

SETVI Foxtail, Green [18] = experiment: Preemergence herbicidal evaluation, SETVI; type: in vivo, Setaria viridis, (L.) Beau; settings: preemergence
Source text: as §1

[19] = system: IPOHE Morningglory, Ivyleaf; experiment: Preemergence herbicidal evaluation, IPOHE; type: in vivo, Ipomoea hederacea, (L.) Jacq.; settings: preemergence
Source text: as §1

GALAP Galium [20] = experiment: Postemergence herbicidal evaluation, GALAP; type: in vivo, Galium aparine; settings: postemergence spray, rated about two-three weeks after treatment
Experimental: as §2

ORYSAT Rice, Tebonnet [21] = experiment: Preemergence herbicidal evaluation, ORYSAT; type: in vivo, Oryza sativa, (L.); settings: preemergence
Source text: as §1

GLXMAW Soybean, Williams [22] = experiment: Postemergence herbicidal evaluation, GLXMAW; type: in vivo, Glycine max, (L.) Merr. cv Williams; settings: postemergence spray, rated about two-three weeks after treatment
Experimental: as §2

CASOB Sicklepod [23] = experiment: Postemergence herbicidal evaluation, CASOB; type: in vivo, Cassia obtusifolia, L.; settings: postemergence spray, rated about two-three weeks after treatment
Experimental: as §2

AMBEL Ragweed, Common [24] = experiment: Postemergence herbicidal evaluation, AMBEL; type: in vivo, Ambrosia artemisifolia, L.; settings: postemergence spray, rated about two-three weeks after treatment
Experimental: as §2

COc1ccccc1-n1nnc2cc(F)c(-n3c(=O)cc(C(F)(F)F)n(C)c3=O)cc21 [Example 16, 3-[5-Fluoro-1-(2-Methoxyphenyl)-1H-1,2,3-Benzotriazol-6-yl]-1-Methyl-6-(Trifluoromethyl)-2,4(1H,3H)-Pyrmidinedione]
0.0: GALAP herbicidal rating (GALAP Galium [2]; rate 0.016 kg/ha) | GALAP herbicidal rating (GALAP Galium [2]; rate 0.032 kg/ha) | CASOB herbicidal rating (CASOB Sicklepod [16]; rate 0.016 kg/ha) | CASOB herbicidal rating (CASOB Sicklepod [16]; rate 0.032 kg/ha) | Postemergence herbicidal rating GALAP (GALAP Galium [20]; 0.008 kg/ha)
9.0: CHEAL herbicidal rating ([1]; rate 0.016 kg/ha) | CHEAL herbicidal rating ([1]; rate 0.032 kg/ha) | CHEAL herbicidal rating ([1]; rate 0.062 kg/ha) | CHEAL herbicidal rating ([1]; rate 0.125 kg/ha) | GALAP herbicidal rating (GALAP Galium [2]; rate 0.062 kg/ha) | GALAP herbicidal rating (GALAP Galium [2]; rate 0.125 kg/ha) | Postemergence herbicidal rating IPOHE ([3]; 0.032 kg/ha) | Postemergence herbicidal rating IPOHE ([3]; 0.062 kg/ha) | GLXMAW herbicidal rating (GLXMAW Soybean, Williams [5]; rate 0.016 kg/ha) | GLXMAW herbicidal rating (GLXMAW Soybean, Williams [5]; rate 0.032 kg/ha) | GLXMAW herbicidal rating (GLXMAW Soybean, Williams [5]; rate 0.062 kg/ha) | GLXMAW herbicidal rating (GLXMAW Soybean, Williams [5]; rate 0.125 kg/ha) | AMBEL herbicidal rating (AMBEL Ragweed, Common [6]; rate 0.032 kg/ha) | AMBEL herbicidal rating (AMBEL Ragweed, Common [6]; rate 0.062 kg/ha) | AMBEL herbicidal rating (AMBEL Ragweed, Common [6]; rate 0.125 kg/ha) | ABUTH herbicidal rating (ABUTH Velvetleaf [9]; rate 0.016 kg/ha) | ABUTH herbicidal rating (ABUTH Velvetleaf [9]; rate 0.032 kg/ha) | ABUTH herbicidal rating (ABUTH Velvetleaf [9]; rate 0.062 kg/ha) | ABUTH herbicidal rating (ABUTH Velvetleaf [9]; rate 0.125 kg/ha) | ECHCG herbicidal rating (ECHOG Barnyardgrass [12]; rate 0.016 kg/ha) | ECHCG herbicidal rating (ECHOG Barnyardgrass [12]; rate 0.032 kg/ha) | ECHCG herbicidal rating (ECHOG Barnyardgrass [12]; rate 0.062 kg/ha) | ECHCG herbicidal rating (ECHOG Barnyardgrass [12]; rate 0.125 kg/ha) | TRZAWR herbicidal rating ([13]; rate 0.125 kg/ha) | Postemergence herbicidal rating ABUTH (ABUTH Velvetleaf [14]; 0.008 kg/ha) | Postemergence herbicidal rating ABUTH (ABUTH Velvetleaf [14]; 0.016 kg/ha) | Postemergence herbicidal rating ABUTH (ABUTH Velvetleaf [14]; 0.032 kg/ha) | Postemergence herbicidal rating ABUTH (ABUTH Velvetleaf [14]; 0.062 kg/ha) | Postemergence herbicidal rating SETVI (SETVI Foxtail, Green [15]; 0.062 kg/ha) | CASOB herbicidal rating (CASOB Sicklepod [16]; rate 0.062 kg/ha) | CASOB herbicidal rating (CASOB Sicklepod [16]; rate 0.125 kg/ha) | SETVI herbicidal rating (SETVI Foxtail, Green [18]; rate 0.016 kg/ha) | SETVI herbicidal rating (SETVI Foxtail, Green [18]; rate 0.032 kg/ha) | SETVI herbicidal rating (SETVI Foxtail, Green [18]; rate 0.062 kg/ha) | SETVI herbicidal rating (SETVI Foxtail, Green [18]; rate 0.125 kg/ha) | IPOHE herbicidal rating ([19]; rate 0.062 kg/ha) | IPOHE herbicidal rating ([19]; rate 0.125 kg/ha) | ORYSAT herbicidal rating (ORYSAT Rice, Tebonnet [21]; rate 0.062 kg/ha) | ORYSAT herbicidal rating (ORYSAT Rice, Tebonnet [21]; rate 0.125 kg/ha) | Postemergence herbicidal rating CASOB (CASOB Sicklepod [23]; 0.062 kg/ha) | Postemergence herbicidal rating AMBEL (AMBEL Ragweed, Common [24]; 0.016 kg/ha) | Postemergence herbicidal rating AMBEL (AMBEL Ragweed, Common [24]; 0.032 kg/ha) | Postemergence herbicidal rating AMBEL (AMBEL Ragweed, Common [24]; 0.062 kg/ha)
7.0: ZEAMX herbicidal rating (ZEAMX Corn, Field [11]; rate 0.032 kg/ha) | Postemergence herbicidal rating SETVI (SETVI Foxtail, Green [15]; 0.032 kg/ha) | ORYSAT herbicidal rating (ORYSAT Rice, Tebonnet [21]; rate 0.016 kg/ha) | ORYSAT herbicidal rating (ORYSAT Rice, Tebonnet [21]; rate 0.032 kg/ha)
4.0: Postemergence herbicidal rating ORYSAT (ORYSAT Rice, Tebonnet [17]; 0.062 kg/ha) | Postemergence herbicidal rating GALAP (GALAP Galium [20]; 0.062 kg/ha)
2.0: Postemergence herbicidal rating ECHCG (ECHOG Barnyardgrass [7]; 0.008 kg/ha) | Postemergence herbicidal rating ECHCG (ECHOG Barnyardgrass [7]; 0.016 kg/ha) | Postemergence herbicidal rating SETVI (SETVI Foxtail, Green [15]; 0.008 kg/ha) | Postemergence herbicidal rating AMBEL (AMBEL Ragweed, Common [24]; 0.008 kg/ha)
2.5: Postemergence herbicidal rating TRZAWR ([8]; 0.008 kg/ha) | Postemergence herbicidal rating ORYSAT (ORYSAT Rice, Tebonnet [17]; 0.008 kg/ha)
5.0: Postemergence herbicidal rating IPOHE ([3]; 0.008 kg/ha) | Postemergence herbicidal rating IPOHE ([3]; 0.016 kg/ha) | Postemergence herbicidal rating CHEAL ([4]; 0.008 kg/ha) | Postemergence herbicidal rating CHEAL ([4]; 0.016 kg/ha) | Postemergence herbicidal rating ECHCG (ECHOG Barnyardgrass [7]; 0.062 kg/ha) | Postemergence herbicidal rating SETVI (SETVI Foxtail, Green [15]; 0.016 kg/ha) | Postemergence herbicidal rating GLXMAW (GLXMAW Soybean, Williams [22]; 0.008 kg/ha) | Postemergence herbicidal rating GLXMAW (GLXMAW Soybean, Williams [22]; 0.016 kg/ha)
5.5: Postemergence herbicidal rating TRZAWR ([8]; 0.062 kg/ha) | Postemergence herbicidal rating ZEAMX (ZEAMX Corn, Field [10]; 0.008 kg/ha)
6.0: Postemergence herbicidal rating CHEAL ([4]; 0.032 kg/ha) | AMBEL herbicidal rating (AMBEL Ragweed, Common [6]; rate 0.016 kg/ha) | Postemergence herbicidal rating ZEAMX (ZEAMX Corn, Field [10]; 0.016 kg/ha) | Postemergence herbicidal rating ZEAMX (ZEAMX Corn, Field [10]; 0.032 kg/ha) | Postemergence herbicidal rating ZEAMX (ZEAMX Corn, Field [10]; 0.062 kg/ha) | TRZAWR herbicidal rating ([13]; rate 0.016 kg/ha) | Postemergence herbicidal rating GLXMAW (GLXMAW Soybean, Williams [22]; 0.032 kg/ha) | Postemergence herbicidal rating CASOB (CASOB Sicklepod [23]; 0.008 kg/ha) | Postemergence herbicidal rating CASOB (CASOB Sicklepod [23]; 0.016 kg/ha) | Postemergence herbicidal rating CASOB (CASOB Sicklepod [23]; 0.032 kg/ha)
7.5: Postemergence herbicidal rating GLXMAW (GLXMAW Soybean, Williams [22]; 0.062 kg/ha)
3.5: Postemergence herbicidal rating TRZAWR ([8]; 0.032 kg/ha)
8.0: Postemergence herbicidal rating CHEAL ([4]; 0.062 kg/ha) | ZEAMX herbicidal rating (ZEAMX Corn, Field [11]; rate 0.016 kg/ha) | ZEAMX herbicidal rating (ZEAMX Corn, Field [11]; rate 0.062 kg/ha) | ZEAMX herbicidal rating (ZEAMX Corn, Field [11]; rate 0.125 kg/ha) | TRZAWR herbicidal rating ([13]; rate 0.032 kg/ha) | TRZAWR herbicidal rating ([13]; rate 0.062 kg/ha)
3.0: Postemergence herbicidal rating ECHCG (ECHOG Barnyardgrass [7]; 0.032 kg/ha) | Postemergence herbicidal rating TRZAWR ([8]; 0.016 kg/ha) | Postemergence herbicidal rating ORYSAT (ORYSAT Rice, Tebonnet [17]; 0.016 kg/ha) | Postemergence herbicidal rating ORYSAT (ORYSAT Rice, Tebonnet [17]; 0.032 kg/ha) | IPOHE herbicidal rating ([19]; rate 0.016 kg/ha) | IPOHE herbicidal rating ([19]; rate 0.032 kg/ha) | Postemergence herbicidal rating GALAP (GALAP Galium [20]; 0.016 kg/ha) | Postemergence herbicidal rating GALAP (GALAP Galium [20]; 0.032 kg/ha)
